Experimental data published in paper PMC7738880, “Identification of novel CD44v6-binding peptides that block CD44v6 and deliver a pro-apoptotic peptide to tumors to inhibit tumor growth and metastasis in mice” (Theranostics, 2021).
Residues, ends and D or L forms follow the SMILES beside them.

Legend:
[1] = molecular target: T1, CD44v6 on MDA-MB231 cells (Homo sapiens, UniProt P16070); assay: Flow cytometric competition assays with anti-CD44v6 antibody; assay type: cell-based; conditions: for peptide binding to cells after pre-treatment with anti-CD44v6 antibody: MDA-MB231, antibody 5 µg/mL 1 h, FITC-labeled peptide 10 µM; for staining of CD44v6 with anti-CD44v6 antibody after pre-treatment with peptide: MDA-MB231, peptide 50 µM 1 h
T1 sequence (P16070 386-428 limits assumed): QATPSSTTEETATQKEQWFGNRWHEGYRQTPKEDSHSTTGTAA
Experimental: (§1) Cells (1 × 10^5 cells) were harvested and suspended in culture medium containing 1% BSA for 1 h, followed by an incubation with FITC-labeled peptides (25 µM) at 4 °C for 1 h. After washing, the cells were analyzed using a FACSCalibur flow cytometer (BD, Franklin Lakes, NJ). For competition assays, cells were incubated with 5 µg/mL of an anti-human CD44v6 mouse monoclonal antibody (clone no. VFF-18, 1:100 dilution; Abcam, Cambridge, MA) and anti-human CD44 monoclonal antibody (clone no. 156-3C11, 1:100 dilution; ThermoFisher Scientific) for 1 h to compete with peptide binding, followed by an incubation with FITC-labeled peptides (10 µM) before analysis on a flow cytometer (BD). In another set of assays, cells were incubated with peptides (50 µM) for 1 h to compete with antibody binding, followed by an incubation with 5 µg/mL of the anti-human CD44v6 mouse monoclonal antibody for 1 h, The cells were then incubated with an Alexa Fluor 488-labeled goat anti-mouse IgG secondary antibody (Merck) before analysis on a flow cytometer (BD).

4T1 cells = assay: Saturation cell binding assay, 4T1; set-up: species or system mouse; conditions: biotin-labeled peptide 0-256 µM, 4 °C, 1 h
Experimental: (§2) Supplementary Information
(§3) Supplementary Materials and Methods
(§4) Saturation binding assays to determine the cellular binding affinities of peptides Cells (5 × 10^3 cells per well in a 96-well plate) were incubated with 1% bovine serum albumin (BSA) for 30 min and with different concentrations of biotin-labeled peptides (0, 2, 4, 8, 16, 32, 64, 128, and 256 µM) at 4 °C for 1 h. After washing, the cells were incubated with horseradish peroxidase-conjugated neutravidin (1:10,000 dilution; ThermoFisher Scientific, Waltham, MA) for 30 min at room temperature. Enzymatic activity was detected using a 3,3ʹ,5,5ʹ-tetramethylbenzidine substrate (ThermoFisher Scientific), and the reaction was stopped using 2 M sulfuric acid. The absorbance at 450 nm was measured in each well using a microplate reader (Tecan, Mannedorf, Switzerland). The KD values were then calculated using GraphPad Prism 6 software (GraphPad Inc., La Jolla, CA). […]
(§5) 10 µM biotin-labeled CD44v6-binding peptides at 4 °C for 1 h. […]
(§6) Scientific) for 30 min at room temperature. […]

MDA-MB231-luc cells = assay: MDA-MB231-luc experimental lung metastasis model; assay type: in vivo; conditions: for number of tumor nodules in the lungs, peptide in combination with crizotinib versus single treatment / survival rate, peptide in combination with crizotinib versus single treatment: peptide 14.2 mg/kg i.v. plus crizotinib 25 mg/kg oral; for numbers of metastatic tumor nodules in the lungs / weights of the isolated lungs: peptide 14.2 mg/kg i.v. thrice weekly for 3 weeks; for luminescence signals and total photon flux in the whole body: peptide 14.2 mg/kg i.v. thrice weekly for 3 weeks from 1 h after tumor cell injection; for survival rate: peptide 14.2 mg/kg i.v. thrice weekly or crizotinib 25 mg/kg oral twice weekly, 3 weeks, single treatment; for liver and kidney functional marker levels (BUN, CRE, AST, ALT): peptide alone or in combination with crizotinib, serum, n = 5/group
Experimental: A mouse model of lung metastasis of breast cancer was prepared by injecting 1 × 10^6 MDA-MB231-luc cells into 6-week-old female BALB/c nude mice via tail vein. To monitor the localization of the tumor cells in the lungs, the mice were injected intraperitoneally with D-luciferin at a dose of 150 mg/kg body weight and subjected to a whole-body bioluminescence imaging using IVIS imaging system (Perkin Elmer) after a 10-min resting period. Mice (n = 10 per group) were randomly assigned to groups based on the luminescence intensity. At 1 h after tumor cell injection, tumor-bearing mice received intravenous injections of CD44v6-binding peptides through the tail vein (14.2 mg/kg body weight, thrice weekly for 3 weeks) alone or in combination with orally administered crizotinib in 5% dimethyl sulfoxide (DMSO) (25 mg/kg of body weight, twice weekly for 3 weeks) as previously described, [29]. Metastatic tumor growth after treatments was monitored by measuring the total photon flux (number of photons/second) in the whole body using the IVIS imaging system. The body weights of mice and tumor ulceration were monitored throughout the treatment period. At the end of the treatment period, half of the mice (n = 5 per group) were used for the collection of blood, sacrificed, the lungs were harvested and weighed, and the numbers of metastatic tumor nodules in the lungs were counted. The remaining mice (n = 5 per group) were maintained until death to determine the survival rates. For the analysis of hematological parameters, 1 mL of blood was collected from each mouse and separated into 500 µL aliquots used to prepare serum and plasma. Serum was obtained by centrifuging clotted blood at 4 °C twice, followed by filtration (pore size: 0.22 µm). Plasma was obtained by centrifuging ethylenediaminetetraacetic acid-treated samples. Hematological parameters and liver and kidney function markers were measured by DGMIF (Daegu, Korea).

[2] = system: CD44v6-knockdown MDA-MB231 cells; assay: Peptide binding to CD44v6-knockdown cells (flow cytometry); assay type: cell-based, human; conditions: FITC-labeled peptide 25 µM, MDA-MB231, siRNA knockdown 24 h
Experimental: as §1
CD44v6 gene expression was knocked down using CD44v6 small interfering RNAs (siRNAs) as previously described. Two CD44v6-specific siRNAs (v6-1: 5ʹ-AGU ACA ACG GAA ATT-3ʹ and v6-2: 5ʹ-GGA UAU CGC CAAACA CCC ATT-3ʹ) were synthesized by Bioneer (Daejeon, Korea). Control siRNA (5ʹ-CUA CGC CAA UUU CGU (dTdT)-3ʹ) were purchased from Bioneer. […]

MCF7 cells = assay: Saturation cell binding assay, MCF7; set-up: species or system human; conditions: biotin-labeled peptide 0-256 µM, 4 °C, 1 h, CD44v6-low cells
Experimental: as §2, §3, §4, §5, §6

[3] = molecular target: T2, CD44v6 from MDA-MB231 cell lysates (Homo sapiens, UniProt P16070); assay: Pull-down assay with biotin-labeled peptides; assay type: binding; conditions: biotinylated peptide 25 µM, streptavidin beads, immunoblotting
T2 sequence (P16070 386-428 limits assumed): T1 sequence (P16070 386-428 limits assumed)
Experimental: Biotin-labeled peptides were incubated with streptavidin magnetic beads (Bioclone Inc., San Diego, CA) at room temperature for 30-60 min under gentle rotation. MDA-MB231 cells were then lysed using a cell lysis reagent (ThermoFisher Scientific) containing protease inhibitors. The lysates were incubated with the biotinylated peptide (25 µM) and streptavidin bead complexes at room temperature for 30-60 min under gentle rotation. In another set of assays, the recombinant human CD44v6 protein was used instead of the cell lysates. The complexes were pulled down and incubated with an elution buffer containing 2 mM D-biotin (Bioclone Inc.) for 5-10 min, and the eluates were collected and subjected to electrophoresis.

SMILES | peptide binding to cells after pre-treatment with anti-CD44v6 antibody [1] | staining of CD44v6 with anti-CD44v6 antibody after pre-treatment with peptide [1] | Kd (4T1 cells) [µM] | serum alanine transferase levels (MDA-MB231-luc cells; above the normal ranges, 14.2 mg/kg i.v. thrice weekly for 3 weeks) | number of tumor nodules in the lungs, peptide in combination with crizotinib versus single treatment (MDA-MB231-luc cells) | survival rate, peptide in combination with crizotinib versus single treatment (MDA-MB231-luc cells) | numbers of metastatic tumor nodules in the lungs (MDA-MB231-luc cells) | weights of the isolated lungs (MDA-MB231-luc cells) | luminescence signals and total photon flux in the whole body (MDA-MB231-luc cells) | survival rate (MDA-MB231-luc cells) | liver and kidney functional marker levels (BUN, CRE, AST, ALT) (MDA-MB231-luc cells) | decrease of cellular binding to CD44v6-knockdown cells compared with wild-type cells [2] | Kd (MCF7 cells) [µM] | pull-down of CD44v6 and CD44 from cell lysates [3] | pull-down of c-Met together with CD44v6 from cell lysates [3]
CC[C@H](C)[C@H](NC(=O)[C@@H](NC(=O)[C@H](CC(N)=O)NC(=O)[C@H](CC(C)C)NC(=O)[C@H](CC(N)=O)NC(=O)[C@@H](N)CS)[C@@H](C)O)C(=O)N[C@@H](CC(=O)O)C(=O)N[C@H](C(=O)N[C@@H](CS)C(=O)O)[C@@H](C)O [NLN] (H-CNLNTIDTC-OH; N-terminus and C-terminus assumed) | significantly inhibited | inhibited | 17 ± 7 | significantly increased | more efficiently reduced | increased the survival rate | reduced | reduced | decreased | increased | within or close to the normal ranges | 6-7 fold | 300 ± 250 | selectively pulled down CD44v6 but not CD44 | pulled down both c-Met and CD44v6
CC(C)C[C@H](NC(=O)[C@H](CCC(N)=O)NC(=O)[C@H](Cc1c[nH]c2ccccc12)NC(=O)[C@H](CCC(=O)O)NC(=O)[C@H](CC(N)=O)NC(=O)[C@@H](N)CS)C(=O)N[C@@H](CCCCN)C(=O)N[C@@H](CO)C(=O)N[C@@H](CS)C(=O)O [NEW] (H-CNEWQLKSC-OH; N-terminus and C-terminus assumed) | significantly inhibited | inhibited | 29 ± 16 | – | more efficiently reduced | increased the survival rate | reduced | reduced | decreased | increased | within or close to the normal ranges | 6-7 fold | 122 ± 115 | selectively pulled down CD44v6 but not CD44 | pulled down only CD44v6
